Experimental data taken from ChEMBL document CHEMBL4507297, “Data for DCP probe PF-04457845” (2021).

Key:
[1] = biological target: Insulin receptor (Homo sapiens) (UniProt P06213); details: Compound concentration 1000.0 nM
[2] = tested on: Mast/stem cell growth factor receptor Kit (Homo sapiens), P10721 [D816V]; details: Compound concentration 1000.0 nM
[3] = biological target: Cyclin-dependent kinase 8 (Homo sapiens) (UniProt P49336); details: Compound concentration 1000.0 nM
[4] = biological target: Serine/threonine-protein kinase ICK (Homo sapiens) (UniProt Q9UPZ9); details: Compound concentration 1000.0 nM
Sequence of Serine/threonine-protein kinase ICK (Homo sapiens) (Q9UPZ9 whole entry): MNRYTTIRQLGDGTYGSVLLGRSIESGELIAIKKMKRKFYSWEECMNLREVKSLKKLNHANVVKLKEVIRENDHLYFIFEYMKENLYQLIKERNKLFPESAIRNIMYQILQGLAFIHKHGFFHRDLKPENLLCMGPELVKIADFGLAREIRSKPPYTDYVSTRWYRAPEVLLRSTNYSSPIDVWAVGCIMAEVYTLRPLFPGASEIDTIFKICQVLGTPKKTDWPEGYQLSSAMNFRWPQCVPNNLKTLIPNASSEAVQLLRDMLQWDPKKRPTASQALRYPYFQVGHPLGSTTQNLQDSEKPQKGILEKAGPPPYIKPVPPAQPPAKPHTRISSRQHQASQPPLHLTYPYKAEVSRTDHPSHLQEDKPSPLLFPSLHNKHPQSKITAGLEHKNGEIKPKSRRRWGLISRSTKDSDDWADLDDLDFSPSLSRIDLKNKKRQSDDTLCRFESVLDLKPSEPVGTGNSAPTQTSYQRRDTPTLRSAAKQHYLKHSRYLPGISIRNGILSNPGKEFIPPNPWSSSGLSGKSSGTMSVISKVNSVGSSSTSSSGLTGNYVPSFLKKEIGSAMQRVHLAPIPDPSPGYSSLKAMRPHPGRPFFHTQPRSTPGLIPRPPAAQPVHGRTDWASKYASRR

[5] = biological target: 5-hydroxytryptamine receptor 2B (Homo sapiens, UniProt P41595); details: Compound concentration 10.0 uM
[6] = biological target: Serine/threonine-protein kinase ULK1 (Homo sapiens) (UniProt O75385); details: Compound concentration 1000.0 nM
[7] = biological target: cGMP-dependent protein kinase 2 (Homo sapiens) (UniProt Q13237); details: Compound concentration 1000.0 nM
[8] = biological target: Cytoplasmic tyrosine-protein kinase BMX (Homo sapiens) (UniProt P51813); details: Compound concentration 1000.0 nM
[9] = biological target: T1, Alpha-2A adrenergic receptor (Homo sapiens) (UniProt P08913); details: Compound concentration 10.0 uM
T1 sequence (whole entry): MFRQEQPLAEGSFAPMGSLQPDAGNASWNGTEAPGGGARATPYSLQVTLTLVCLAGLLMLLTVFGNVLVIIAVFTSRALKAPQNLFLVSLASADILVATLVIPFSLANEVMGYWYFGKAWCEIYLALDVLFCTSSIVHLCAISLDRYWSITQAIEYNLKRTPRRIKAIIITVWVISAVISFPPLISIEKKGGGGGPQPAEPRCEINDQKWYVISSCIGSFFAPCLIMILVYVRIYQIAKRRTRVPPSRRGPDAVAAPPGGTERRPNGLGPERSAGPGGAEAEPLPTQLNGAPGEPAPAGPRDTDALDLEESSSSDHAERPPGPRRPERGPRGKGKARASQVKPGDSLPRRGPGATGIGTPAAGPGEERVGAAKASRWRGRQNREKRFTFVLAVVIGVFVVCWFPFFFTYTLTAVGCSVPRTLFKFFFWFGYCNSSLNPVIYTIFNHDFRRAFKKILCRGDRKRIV

[10] = biological target: MAP kinase-interacting serine/threonine-protein kinase 2 (Homo sapiens) (UniProt Q9HBH9); details: Compound concentration 1000.0 nM
[11] = biological target: Ephrin type-B receptor 1 (Homo sapiens) (UniProt P54762); details: Compound concentration 1000.0 nM
[12] = biological target: Sodium-dependent noradrenaline transporter (Homo sapiens) (UniProt P23975); details: Compound concentration 10.0 uM
[13] = biological target: Misshapen-like kinase 1 (Homo sapiens) (UniProt Q8N4C8); details: Compound concentration 1000.0 nM
[14] = biological target: Ribosomal protein S6 kinase alpha-5 (Homo sapiens) (UniProt O75582); details: Compound concentration 1000.0 nM
[15] = biological target: Ribosomal protein S6 kinase alpha-2 (Homo sapiens) (UniProt Q15349); details: Compound concentration 1000.0 nM
[16] = biological target: Calcium/calmodulin-dependent protein kinase type II subunit alpha (Homo sapiens) (UniProt Q9UQM7); details: Compound concentration 1000.0 nM
[17] = biological target: Serine/threonine-protein kinase PAK 5 (Homo sapiens) (UniProt Q9P286); details: Compound concentration 1000.0 nM
[18] = biological target: Hepatocyte growth factor receptor (Homo sapiens) (UniProt P08581); details: Compound concentration 1000.0 nM
Sequence of Hepatocyte growth factor receptor (Homo sapiens) (P08581 whole entry): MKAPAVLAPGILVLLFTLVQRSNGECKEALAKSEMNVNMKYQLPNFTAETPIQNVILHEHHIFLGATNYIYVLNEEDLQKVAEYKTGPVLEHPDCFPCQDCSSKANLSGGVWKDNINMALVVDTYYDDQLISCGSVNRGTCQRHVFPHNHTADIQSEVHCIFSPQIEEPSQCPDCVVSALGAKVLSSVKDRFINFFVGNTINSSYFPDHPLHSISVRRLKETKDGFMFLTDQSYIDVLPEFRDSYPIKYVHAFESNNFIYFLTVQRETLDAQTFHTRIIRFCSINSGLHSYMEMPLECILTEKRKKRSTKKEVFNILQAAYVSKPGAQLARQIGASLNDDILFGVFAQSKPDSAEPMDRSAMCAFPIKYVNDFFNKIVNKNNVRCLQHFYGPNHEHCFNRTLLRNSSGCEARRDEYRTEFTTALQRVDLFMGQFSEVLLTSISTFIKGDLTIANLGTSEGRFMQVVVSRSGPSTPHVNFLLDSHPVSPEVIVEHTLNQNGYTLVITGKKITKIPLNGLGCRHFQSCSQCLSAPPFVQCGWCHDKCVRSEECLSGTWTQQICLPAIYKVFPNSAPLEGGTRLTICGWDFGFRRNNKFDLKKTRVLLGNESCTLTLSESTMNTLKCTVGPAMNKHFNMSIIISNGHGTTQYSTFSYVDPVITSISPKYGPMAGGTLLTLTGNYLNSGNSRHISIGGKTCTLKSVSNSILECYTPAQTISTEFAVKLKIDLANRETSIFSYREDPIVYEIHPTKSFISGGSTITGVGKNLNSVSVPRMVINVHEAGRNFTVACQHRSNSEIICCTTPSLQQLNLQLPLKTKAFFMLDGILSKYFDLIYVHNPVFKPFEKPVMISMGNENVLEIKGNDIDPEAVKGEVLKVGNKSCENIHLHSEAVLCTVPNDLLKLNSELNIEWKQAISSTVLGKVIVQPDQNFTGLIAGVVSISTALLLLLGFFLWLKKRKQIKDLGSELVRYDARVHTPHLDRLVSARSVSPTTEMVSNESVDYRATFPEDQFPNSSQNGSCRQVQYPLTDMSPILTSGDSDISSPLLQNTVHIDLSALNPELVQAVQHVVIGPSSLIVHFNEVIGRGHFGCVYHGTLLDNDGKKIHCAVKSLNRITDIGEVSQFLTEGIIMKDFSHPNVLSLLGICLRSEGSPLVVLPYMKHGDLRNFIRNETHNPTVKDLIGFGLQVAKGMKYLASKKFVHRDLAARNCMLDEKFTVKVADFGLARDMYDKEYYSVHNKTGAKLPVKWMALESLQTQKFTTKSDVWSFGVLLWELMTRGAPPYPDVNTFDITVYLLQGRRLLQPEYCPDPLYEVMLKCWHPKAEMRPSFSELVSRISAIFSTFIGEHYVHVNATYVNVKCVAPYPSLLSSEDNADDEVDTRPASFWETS

[19] = biological target: Homeodomain-interacting protein kinase 1 (Homo sapiens) (UniProt Q86Z02); details: Compound concentration 1000.0 nM
[20] = biological target: Calcium/calmodulin-dependent protein kinase type II subunit gamma (Homo sapiens) (UniProt Q13555); details: Compound concentration 1000.0 nM
Sequence of Calcium/calmodulin-dependent protein kinase type II subunit gamma (Homo sapiens) (Q13555 whole entry): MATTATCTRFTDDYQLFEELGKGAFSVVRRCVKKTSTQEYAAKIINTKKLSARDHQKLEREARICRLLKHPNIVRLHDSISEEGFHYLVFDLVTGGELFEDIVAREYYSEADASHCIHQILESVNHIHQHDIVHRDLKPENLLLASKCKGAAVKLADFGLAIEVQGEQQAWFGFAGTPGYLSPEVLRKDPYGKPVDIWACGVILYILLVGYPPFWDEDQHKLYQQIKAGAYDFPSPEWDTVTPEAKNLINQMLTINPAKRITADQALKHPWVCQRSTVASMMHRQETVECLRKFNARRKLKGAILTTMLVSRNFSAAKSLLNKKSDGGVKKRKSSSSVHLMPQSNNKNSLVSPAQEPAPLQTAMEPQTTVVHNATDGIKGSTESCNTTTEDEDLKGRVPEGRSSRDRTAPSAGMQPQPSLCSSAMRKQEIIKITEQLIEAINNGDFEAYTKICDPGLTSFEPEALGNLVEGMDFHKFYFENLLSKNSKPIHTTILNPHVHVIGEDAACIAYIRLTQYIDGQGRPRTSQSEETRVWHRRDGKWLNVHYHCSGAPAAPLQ

[21] = biological target: Serine/threonine-protein kinase WNK2 (Homo sapiens) (UniProt Q9Y3S1); details: Compound concentration 1000.0 nM
[22] = biological target: Phosphatidylinositol 4,5-bisphosphate 3-kinase catalytic subunit beta isoform (Homo sapiens) (UniProt P42338); details: Compound concentration 1000.0 nM
[23] = tested on: Proto-oncogene tyrosine-protein kinase receptor Ret (Homo sapiens), P07949 [V804M]; details: Compound concentration 1000.0 nM
Sequence of Proto-oncogene tyrosine-protein kinase receptor Ret (Homo sapiens), P07949 [V804M] (P07949 whole entry V804M, canonical isoform): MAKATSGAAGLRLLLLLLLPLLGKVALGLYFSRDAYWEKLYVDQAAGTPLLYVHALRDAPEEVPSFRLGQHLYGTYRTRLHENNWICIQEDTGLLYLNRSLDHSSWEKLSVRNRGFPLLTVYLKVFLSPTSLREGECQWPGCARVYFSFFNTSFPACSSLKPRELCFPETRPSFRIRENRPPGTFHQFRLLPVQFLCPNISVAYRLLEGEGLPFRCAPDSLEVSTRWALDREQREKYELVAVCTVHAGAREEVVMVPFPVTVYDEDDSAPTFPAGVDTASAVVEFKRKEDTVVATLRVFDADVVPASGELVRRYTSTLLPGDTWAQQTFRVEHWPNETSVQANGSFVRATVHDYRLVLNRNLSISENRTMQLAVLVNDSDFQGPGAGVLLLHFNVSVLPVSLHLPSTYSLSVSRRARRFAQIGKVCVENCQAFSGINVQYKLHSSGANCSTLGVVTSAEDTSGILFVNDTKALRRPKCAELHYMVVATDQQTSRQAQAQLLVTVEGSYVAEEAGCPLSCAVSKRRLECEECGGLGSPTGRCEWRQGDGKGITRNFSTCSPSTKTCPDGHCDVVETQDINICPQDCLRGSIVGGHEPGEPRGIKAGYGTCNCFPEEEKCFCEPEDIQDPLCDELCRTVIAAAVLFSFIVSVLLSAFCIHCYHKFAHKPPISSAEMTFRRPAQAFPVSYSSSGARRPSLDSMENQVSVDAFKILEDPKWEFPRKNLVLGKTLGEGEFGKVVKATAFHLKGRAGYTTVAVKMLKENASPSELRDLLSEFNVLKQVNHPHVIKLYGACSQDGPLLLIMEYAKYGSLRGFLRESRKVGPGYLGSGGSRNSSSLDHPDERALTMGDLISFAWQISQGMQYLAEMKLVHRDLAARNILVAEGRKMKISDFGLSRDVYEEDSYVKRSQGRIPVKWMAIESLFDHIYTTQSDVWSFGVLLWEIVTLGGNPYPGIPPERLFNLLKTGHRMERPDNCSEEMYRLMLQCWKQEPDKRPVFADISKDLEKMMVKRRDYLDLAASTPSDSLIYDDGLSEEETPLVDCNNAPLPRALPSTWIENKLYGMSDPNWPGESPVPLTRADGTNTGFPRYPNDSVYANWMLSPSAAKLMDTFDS

[24] = tested on: Phosphatidylinositol 4,5-bisphosphate 3-kinase catalytic subunit alpha isoform (Homo sapiens), P42336 [I800L]; details: Compound concentration 1000.0 nM
[25] = tested on: Tyrosine-protein kinase ABL1 (Homo sapiens), P00519 [Y253F]; details: Compound concentration 1000.0 nM
[26] = biological target: Dual specificity mitogen-activated protein kinase kinase 7 (Homo sapiens) (UniProt O14733); details: Compound concentration 1000.0 nM
[27] = biological target: Myotonin-protein kinase (Homo sapiens) (UniProt Q09013); details: Compound concentration 1000.0 nM
[28] = biological target: Dual specificity mitogen-activated protein kinase kinase 1 (Homo sapiens) (UniProt Q02750); details: Compound concentration 1000.0 nM
Sequence of Dual specificity mitogen-activated protein kinase kinase 1 (Homo sapiens) (Q02750 whole entry, the tested form may be a part): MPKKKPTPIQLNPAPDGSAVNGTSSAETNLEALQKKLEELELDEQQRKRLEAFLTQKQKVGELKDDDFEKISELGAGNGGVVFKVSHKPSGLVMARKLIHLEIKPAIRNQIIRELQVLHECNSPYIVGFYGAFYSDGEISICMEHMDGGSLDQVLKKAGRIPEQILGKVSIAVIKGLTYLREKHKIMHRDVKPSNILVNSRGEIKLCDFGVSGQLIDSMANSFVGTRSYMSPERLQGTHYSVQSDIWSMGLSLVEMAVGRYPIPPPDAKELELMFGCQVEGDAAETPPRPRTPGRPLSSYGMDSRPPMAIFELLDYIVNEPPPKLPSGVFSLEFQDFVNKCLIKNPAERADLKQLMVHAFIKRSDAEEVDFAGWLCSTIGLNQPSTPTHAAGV

[29] = biological target: Phosphatidylinositol 4-phosphate 3-kinase C2 domain-containing subunit beta (Homo sapiens) (UniProt O00750); details: Compound concentration 1000.0 nM
[30] = tested on: Receptor-type tyrosine-protein kinase FLT3 (Homo sapiens), P36888 [D835Y]; details: Compound concentration 1000.0 nM
[31] = biological target: Cyclin-dependent kinase 9 (Homo sapiens) (UniProt P50750); details: Compound concentration 1000.0 nM
Sequence of Cyclin-dependent kinase 9 (Homo sapiens) (P50750 whole entry): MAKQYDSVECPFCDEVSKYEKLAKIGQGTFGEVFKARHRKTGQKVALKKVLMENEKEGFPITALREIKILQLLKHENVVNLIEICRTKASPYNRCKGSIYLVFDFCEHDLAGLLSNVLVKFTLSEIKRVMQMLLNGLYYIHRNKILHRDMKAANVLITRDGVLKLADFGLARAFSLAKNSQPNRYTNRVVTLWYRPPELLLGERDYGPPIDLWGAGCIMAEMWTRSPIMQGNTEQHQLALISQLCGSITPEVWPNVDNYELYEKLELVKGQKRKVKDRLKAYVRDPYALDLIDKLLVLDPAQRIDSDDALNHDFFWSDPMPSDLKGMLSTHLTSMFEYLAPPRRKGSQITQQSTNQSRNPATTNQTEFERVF

[32] = biological target: Death-associated protein kinase 1 (Homo sapiens) (UniProt P53355); details: Compound concentration 1000.0 nM
[33] = biological target: 5-hydroxytryptamine receptor 7 (Homo sapiens) (UniProt P34969); details: Compound concentration 10.0 uM
[34] = biological target: Serine/threonine-protein kinase SIK2 (Homo sapiens) (UniProt Q9H0K1); details: Compound concentration 1000.0 nM
[35] = biological target: Casein kinase I isoform alpha-like (Homo sapiens) (UniProt Q8N752); details: Compound concentration 1000.0 nM
[36] = biological target: 3-phosphoinositide-dependent protein kinase 1 (Homo sapiens) (UniProt O15530); details: Compound concentration 1000.0 nM
Sequence of 3-phosphoinositide-dependent protein kinase 1 (Homo sapiens) (O15530 whole entry): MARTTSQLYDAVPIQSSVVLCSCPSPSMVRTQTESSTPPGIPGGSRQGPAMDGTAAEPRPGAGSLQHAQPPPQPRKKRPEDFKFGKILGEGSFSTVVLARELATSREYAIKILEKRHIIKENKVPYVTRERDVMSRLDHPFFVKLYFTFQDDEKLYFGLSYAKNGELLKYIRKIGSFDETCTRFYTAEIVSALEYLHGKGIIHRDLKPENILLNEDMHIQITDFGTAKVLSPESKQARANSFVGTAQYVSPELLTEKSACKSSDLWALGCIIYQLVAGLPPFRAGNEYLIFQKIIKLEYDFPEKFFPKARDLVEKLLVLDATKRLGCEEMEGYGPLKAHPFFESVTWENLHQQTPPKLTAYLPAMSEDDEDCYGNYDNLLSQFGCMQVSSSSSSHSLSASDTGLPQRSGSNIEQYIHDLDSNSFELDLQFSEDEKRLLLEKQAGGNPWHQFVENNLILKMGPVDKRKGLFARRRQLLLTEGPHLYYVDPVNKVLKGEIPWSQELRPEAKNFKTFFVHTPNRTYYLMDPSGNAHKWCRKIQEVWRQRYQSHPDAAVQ

[37] = biological target: Sigma non-opioid intracellular receptor 1 (Homo sapiens, UniProt Q99720); details: Compound concentration 10.0 uM
[38] = biological target: Serine/threonine-protein kinase mTOR (Homo sapiens) (UniProt P42345); details: Compound concentration 1000.0 nM
[39] = biological target: Tyrosine-protein kinase JAK2 (Homo sapiens) (UniProt O60674); details: Compound concentration 1000.0 nM

SMILES	residual activity [1] [%]	residual activity [2] [%]	residual activity [3] [%]	residual activity [4] [%]	inhibition [5] [%]	residual activity [6] [%]	residual activity [7] [%]	residual activity [8] [%]	inhibition [9] [%]	residual activity [10] [%]	residual activity [11] [%]	inhibition [12] [%]	residual activity [13] [%]	residual activity [14] [%]	residual activity [15] [%]	residual activity [16] [%]	residual activity [17] [%]	residual activity [18] [%]	residual activity [19] [%]	residual activity [20] [%]	other results
O=C(Nc1cccnn1)N1CC(C/C=C/c2cncc(Oc3ccc(C(F)(F)F)cn3)n2)C1	100	100	100	80	2.28	79	91	100	0.68	77	100	-1	100	100	100	100	95	95	88	100	residual activity [21]: 0%; residual activity [22]: 79%; residual activity [23]: 100%; residual activity [24]: 91%; residual activity [25]: 92%; residual activity [26]: 91%; residual activity [27]: 100%; residual activity [28]: 93%; residual activity [29]: 93%; residual activity [30]: 100%; residual activity [31]: 100%; residual activity [32]: 98%; inhibition [33]: 1.18%; residual activity [34]: 100%; residual activity [35]: 100%; residual activity [36]: 97%; inhibition [37]: 32.2%; residual activity [38]: 100%; residual activity [39]: 88%
O=C(Nc1cccnn1)N1CCC(=Cc2cccc(Oc3ccc(C(F)(F)F)cn3)c2)CC1	100	87	100	91	55.7	84	100	71	34.5	100	100	7.86	100	71	100	72	100	100	100	74	residual activity [21]: 92%; residual activity [22]: 100%; residual activity [23]: 100%; residual activity [24]: 100%; residual activity [25]: 100%; residual activity [26]: 100%; residual activity [27]: 100%; residual activity [28]: 100%; residual activity [29]: 91%; residual activity [30]: 100%; residual activity [31]: 93%; residual activity [32]: 100%; inhibition [33]: 37.5%; residual activity [34]: 100%; residual activity [35]: 76%; residual activity [36]: 85%; inhibition [37]: 88.5%; residual activity [38]: 87%; residual activity [39]: 100%
